The test system of experiment [1] is monoclonal anti-hcTnT antibody M11.7. The experiment can be described thus: ITEM-FOUR nano-ESI mass spectrometry: in-solution immune complex formation and gas-phase dissociation of M11.7 antibody–epitope peptide complexes. It counts as binding. The settings on record: for dx (V): Boltzmann curve parameter; for dx (V) / ΔCV50 (V) / Slope (%/V) / Δ (% pts) / in-solution immune complex formation with M11.7 (binding in words): peptide:antibody 13:1; for dx (V) / ΔCV50 (V) / Final (%) / Initial (%) / Slope (%/V): averaged from two acquisitions; for Binding Type: class by difference of normalized product ion intensities over ΔCV; for ΔCV50 (V): collision cell voltage difference for 50% dissociation, Boltzmann fit; for Final (%): normalized product ion quantity at highest applied ΔCV, peptide:antibody 13:1, 200 mM ammonium acetate pH 6.7; for Initial (%): normalized product ion quantity at lowest applied ΔCV, peptide:antibody 13:1, 200 mM ammonium acetate pH 6.7, at least 1 h RT, nano-ESI, ΔCV 0-58 V; for Slope (%/V): slope of Boltzmann curve; for Δ (% pts): difference Final minus Initial normalized product ion intensity; for in-solution immune complex formation with M11.7 (binding in words): nano-ESI-MS, 200 mM ammonium acetate pH 6.7; for KD m0g# [Ø]: apparent gas-phase dissociation constant, dimensionless number, extrapolated to ambient temperature; for ΔGm0g# / Tamb ΔSm0g# / ΔHm0g#: pseudo thermodynamic value of gas-phase complex dissociation; for ΔGm0g#: Ellingham diagram read at Tamb; for Tamb ΔSm0g# / ΔHm0g#: extrapolated to Tamb. How it is done: (§1) Immune complex-containing solutions of a wild-type epitope peptide and its corresponding antibody, e.g., P11 and M7, were prepared by mixing the two components in 200 mM ammonium acetate buffer (pH 6.7), ensuring a molar excess of the epitope peptide over the antibody to achieve binding saturation. After an incubation period of one hour, the entire mixture (~3 µL) was loaded into a nano-ESI emitter and electrosprayed. The mass spectrometer was configured to transmit only ion signals with m/z values above 3850, effectively eliminating signals from the unbound peptide (Figure 1A).
(§2) Antibody–peptide mixture solutions were prepared for ITEM FOUR experiments by mixing 5 µL of one antibody working solution with one assigned peptide working solution to generate antibody to peptide molar ratios of 1:2.1 for all solutions that contained the M7 antibody. For mixture solutions containing the M11.7 or the anti-TNFα antibody, 1:13 molar ratios were prepared. Antibodies were incubated together with peptides for at least one hour at room temperature prior to analysis.
(§3) Data acquisition for ITEM-FOUR experiments was performed as described in [18] with the Synapt G2S mass spectrometer (Waters MS-Technologies, Wilmslow, UK) and with the following instrumental settings: source temperature, 40 °C; capillary voltage, 1.0–1.3 kV; sample cone voltage, 130 V; source offset voltage, 130 V; trap gas flow (argon), 8.0 mL/min; helium gas: 20 bar. All mass spectra were acquired in positive-ion mode applying a mass window of m/z 200–8000. The quadrupole analyzer was used to block transmission of lower-molecular-mass ions: M1 = 5000 with dwell time of 25% and ramp time of 25%; M2 = 5000 with dwell time of 25% and ramp time of 25%; M3 = 5000. ΔCV in the TRAP collision cell was increased stepwise as follows: 0, 2, 6, 10, 14, 18, 22, 26, 30, 34, 40, 46, 52 and 58 V. The ion mobility separation mode was not used. All acquired scans during a given collision cell voltage difference setting were integrated to obtain an averaged spectrum from which ion intensities were extracted for ITEM-FOUR calculations. Data were acquired and processed with MassLynx software version 4.1 (Waters MS-Technologies). For exact time stamps of all measurements, refer to Table S2 in the Supplement (see also the deposited raw data supplement in the PRIDE directory). All mass spectra for each ΔCV setting were smoothed using the Savitzky-Golay method. Spectra of antibody solutions and antibody–peptide mixture solutions were smoothed using 30 cycles with a 15-mass unit window at the high mass end and at the low mass end with 3 cycles and a 2-mass unit window. All measurements were recorded in duplicate. The mass spectrometric raw data have been deposited via the ProteomeXchange Consortium in the PRIDE partner repository with the dataset identifier PXD058812 [70].
(§4) The Origin Pro 2023b (64-bit, OriginLab Corporation, Northampton, MA, USA) software package with an automation script for processing multiple datasets was used to graphically plot the extracted intensities of the ion signals of all relevant molecular entities (the immune complex with two bound peptides, the immune complex with one bound peptide, free antibodies, and free peptides) against their corresponding charge state for each collision cell voltage difference (ΔCV). Subsequently, Gaussian curve fittings were performed separately for each molecular entity. […] Iterations were performed for R2 values to be at least 0.91. Apices of Gaussian curves provided the intensities and the average m/z values for each molecular species. Intensity values of individual molecular entities (educts and products) were summed and normalized. Normalized intensities of educts and products from duplicate measurements were averaged.
(§5) The number of atoms from rituximab was used because the amino acid sequences of neither the M7 nor the M11.7 antibody were disclosed. […]

Experiment [2] concerns monoclonal anti-hcTnT antibody M7. Kind of experiment: ITEM-FOUR nano-ESI mass spectrometry: in-solution immune complex formation and gas-phase dissociation of M7 antibody–epitope peptide complexes. The conditions noted are these: for dx (V): Boltzmann curve parameter; for dx (V) / ΔCV50 (V) / Slope (%/V): peptide:antibody 2.1:1; for dx (V) / ΔCV50 (V) / Final (%) / Initial (%) / Slope (%/V): averaged from two acquisitions; for KD m0g# [Ø]: apparent gas-phase dissociation constant, dimensionless number, extrapolated to ambient temperature; for Binding Type: class by difference of normalized product ion intensities over ΔCV; for ΔCV50 (V): collision cell voltage difference for 50% dissociation, Boltzmann fit; for Final (%): normalized product ion quantity at highest applied ΔCV, peptide:antibody 2.1:1, 200 mM ammonium acetate pH 6.7; for Initial (%): normalized product ion quantity at lowest applied ΔCV, peptide:antibody 2.1:1, 200 mM ammonium acetate pH 6.7, at least 1 h RT, nano-ESI, ΔCV 0-58 V; for ΔGm0g# / Tamb ΔSm0g# / ΔHm0g#: pseudo thermodynamic value of gas-phase complex dissociation; for ΔGm0g#: Ellingham diagram read at Tamb; for Tamb ΔSm0g# / ΔHm0g#: extrapolated to Tamb; for Slope (%/V): slope of Boltzmann curve. It counts as binding. The method, then: as §1, §2, §3, §4, §5

We go through 14 sequences from publication PMC12112476, “Mass Spectrometric ITEM-FOUR Analysis Reveals Coding Single-Nucleotide Polymorphisms in Human Cardiac Troponin T That Evade Detection by Sandwich ELISAs Which Use Monoclonal Antibodies M7 and M11.7 from the Elecsys Troponin T® Assay” (International Journal of Molecular Sciences, 2025).

Turning to AEQQCIRNEREKERQ [Peptide P25], in experiment [1], the “dx (V)” value is 6.00 V; the “Binding Type” value is listed as “unorthodox (Differences in normalized product ion intensities were less than 15 percentage points, but greater than 5 percentage points)”; the “ΔCV50 (V)” value was found to be 10.06 V; the “Final (%)” value was 93.33%. In experiment [1], the “Initial (%)” value amounted to 80.75% and the “Slope (%/V)” value worked out at 0.52 %/V.

AEQQHIRNEREKERQ [Peptide P27]: in experiment [1], the “dx (V)” value was 7.60 V; the “Binding Type” value is recorded as “unorthodox (Differences in normalized product ion intensities were less than 15 percentage points, but greater than 5 percentage points)”; the “ΔCV50 (V)” value is recorded as 14.04 V; the “Final (%)” value stood at 93.49%. Further, in experiment [1], the “Initial (%)” value came out at 80.22% and the “Slope (%/V)” value came to 0.44 %/V.

As for AEQQRIQNEREKERQ [Peptide P29], in experiment [1], the “dx (V)” value is 5.17 V; the “Binding Type” value is reported as “unorthodox (Differences in normalized product ion intensities were less than 15 percentage points, but greater than 5 percentage points)”; the “ΔCV50 (V)” value came out at 9.96 V; the “Δ (% pts)” value amounted to 9.53 % pts. Also, in experiment [1], the “Final (%)” value worked out at 93.92%, the “Initial (%)” value came out at 84.39% and the “Slope (%/V)” value is on record as 0.46 %/V.

As to AEQQRIRNEQEKERQ [Peptide P31], in experiment [1], the “Binding Type” value is listed as “non-binding (The differences in normalized product intensity values were less than 5 percentage points)”, the “in-solution immune complex formation with M11.7 (binding in words)” value (“in-solution immune complex formation” below) is recorded as “Loss of binding”, the “Final (%)” value was 93.39% and the “Initial (%)” value was determined as 93.60%.

As for AEQQRIRNERKKERQ [Peptide P32], in experiment [1], the “dx (V)” value is recorded as 7.32 V, the “KD m0g# [Ø]” value is on record as 1.43 Ø, the “Binding Type” value is given as “orthodox (The differences in normalized product ion intensity values were always greater than 15 percentage points)” and the “ΔCV50 (V)” value was 17.63 V. Besides, in experiment [1], the “Final (%)” value was determined as 96.03%, the “Initial (%)” value is listed as 69.09%, the “ΔGm0g#” value is -0.21 kcal/mol and the “Tamb ΔSm0g#” value is 12.24 kcal/mol. Further, in experiment [1], the “ΔHm0g#” value was 12.03 kcal/mol and the “Slope (%/V)” value was 0.92 %/V.

As to AEQQRIRNEWEKERQ [Peptide P30], in experiment [1], the “Binding Type” value is recorded as “non-binding (The differences in normalized product intensity values were less than 5 percentage points)”, the “in-solution immune complex formation” value was “Loss of binding”, the “Final (%)” value came out at 94.03% and the “Initial (%)” value stood at 90.48%.

AEQQRIWNEREKERQ [Peptide P28]: in experiment [1], the “dx (V)” value worked out at 6.90 V; the “Binding Type” value is reported as “unorthodox (Differences in normalized product ion intensities were less than 15 percentage points, but greater than 5 percentage points)”; the “ΔCV50 (V)” value amounted to 13.80 V; the “Δ (% pts)” value was 6.99 % pts. Also, in experiment [1], the “Final (%)” value was 93.90%, the “Initial (%)” value is given as 86.91% and the “Slope (%/V)” value was 0.25 %/V.

AEQQSIRNEREKERQ [Peptide P26]: in experiment [1], the “dx (V)” value was determined as 6.49 V; the “Binding Type” value is recorded as “unorthodox (Differences in normalized product ion intensities were less than 15 percentage points, but greater than 5 percentage points)”; the “ΔCV50 (V)” value was determined as 26.67 V; the “Δ (% pts)” value is on record as 6.00 % pts. In experiment [1], the “Final (%)” value is 86.48%, the “Initial (%)” value amounted to 80.48% and the “Slope (%/V)” value came out at 0.25 %/V.

For AEQRRIRNEREKERQ [Peptide P24], in experiment [1], the “Binding Type” value is “non-binding (The differences in normalized product intensity values were less than 5 percentage points)”, the “in-solution immune complex formation” value is recorded as “Loss of binding”, the “Final (%)” value is on record as 93.57% and the “Initial (%)” value was 90.25%.

With AKQQRIRNEREKERQ [Peptide P23], in experiment [1], the “dx (V)” value is listed as 7.29 V, the “KD m0g# [Ø]” value is 1.18 Ø, the “Binding Type” value is recorded as “orthodox (The differences in normalized product ion intensity values were always greater than 15 percentage points)” and the “ΔCV50 (V)” value turned out to be 22.47 V. Also, in experiment [1], the “Final (%)” value turned out to be 89.77%, the “Initial (%)” value turned out to be 67.00%, the “ΔGm0g#” value is -0.1 kcal/mol and the “Tamb ΔSm0g#” value is 9.037 kcal/mol. In addition, in experiment [1], the “ΔHm0g#” value was 8.941 kcal/mol and the “Slope (%/V)” value came to 0.78 %/V.

Take AQQQRIRNEREKERQ [Peptide P22]: in experiment [1], the “dx (V)” value is 7.70 V; the “Binding Type” value is recorded as “unorthodox (Differences in normalized product ion intensities were less than 15 percentage points, but greater than 5 percentage points)”; the “ΔCV50 (V)” value is reported as 25.18 V; the “Final (%)” value was 97.12%. Besides, in experiment [1], the “Initial (%)” value turned out to be 87.08% and the “Slope (%/V)” value came to 0.33 %/V.

For LVSLKDRIERCRAER [Peptide P13], in experiment [2], the “dx (V)” value is recorded as 6.55 V, the “KD m0g# [Ø]” value is 0.28 Ø, the “Binding Type” value is “orthodox (The differences in normalized product ion intensity values were always greater than 15 percentage points)” and the “ΔCV50 (V)” value was 23.30 V. In experiment [2], the “Final (%)” value is recorded as 83.40%, the “Initial (%)” value is recorded as 40.36%, the “ΔGm0g#” value worked out at 0.758 kcal/mol and the “Tamb ΔSm0g#” value is 12.43 kcal/mol. In experiment [2], the “ΔHm0g#” value is 13.18 kcal/mol and the “Slope (%/V)” value is reported as 1.64 %/V.

Regarding LVSLKDRIERRGAER [Peptide P15], in experiment [2], the “dx (V)” value turned out to be 6.09 V; the “Binding Type” value is “unorthodox (Differences in normalized product ion intensities were less than 15 percentage points, but greater than 5 percentage points)”; the “ΔCV50 (V)” value was found to be 24.89 V; the “Final (%)” value is given as 84.98%. Besides, in experiment [2], the “Initial (%)” value was determined as 70.69% and the “Slope (%/V)” value was 0.59 %/V.

With LVSLKDRIERRPAER [Peptide P16], in experiment [2], the “dx (V)” value is on record as 5.05 V, the “KD m0g# [Ø]” value is listed as 0.48 Ø, the “Binding Type” value is given as “orthodox (The differences in normalized product ion intensity values were always greater than 15 percentage points)” and the “ΔCV50 (V)” value amounted to 15.83 V. For the same sequence, in experiment [2], the “Final (%)” value is reported as 96.90%, the “Initial (%)” value came out at 55.34%, the “ΔGm0g#” value amounted to 0.44 kcal/mol and the “Tamb ΔSm0g#” value was 20.02 kcal/mol. Further, in experiment [2], the “ΔHm0g#” value is 20.46 kcal/mol and the “Slope (%/V)” value is listed as 2.06 %/V.
